Measurements from patent publication US20140303198A1, “AGENT FOR INHIBITING EXPRESSION OF NPC1L1 AND/OR LIPG MRNA AND AGENT FOR PREVENTING AND/OR TREATING OBESITY” (KOWA COMPANY, LTD., priority 2011, published 2014).

Columns and labels:
NPC1L1 mRNA = experiment: DNA microarray gene expression profile in HepG2 cells (Test Example 2), NPC1L1; format: cell-based, human; conditions: 24 hours, treated vs untreated cells
Experimental: (§1) A compound of a test compound group was added to cells of a human hepatocellular carcinoma cell line HepG2, and the cells were then cultured for 24 hours. Thereafter, the gene expression profile was measured using the DNA microarray of Agilent. Specifically, the HepG2 cells were inoculated at a concentration of 2×10^5 cells/well into a 24-well plate, and were then cultured overnight. Thereafter, Compound 2 was dissolved in dimethyl sulfoxide (DMSO) to give concentrations of 1 μM and 10 μM, whereas Anacetrapib was dissolved in DMSO to give a concentration of […]. The thus prepared solution was added to the culture fluid in an amount of 1/1000-fold of the culture fluid. The cells were cultured at 37° C. for 24 hours in a CO2 incubator. Thereafter, 500 μL of ISOGEN (Nippon Gene Co., Ltd., Catalog No. 31-02501) was added to the culture, and total RNA was then extracted. Cy3-labeled cRNA was synthesized from 200 ng of the RNA using Low Input Quick Amp Labeling Kit (Agilent, Catalog No. 5190-2308). The synthesized Cy3-labeled cRNA was hybridized to Whole Human Genome (4×44K) (Agilent, Catalog No. G4110F), using GE Hybridization Buffer HI-RPM (Agilent, Catalog No. 5190-0403). After completion of the hybridization, the DNA microarray was washed with Gene Expression Wash Buffer (Agilent, Catalog No. 5188-5327), and data were then scanned with a scanner (Agilent).
(§2) The analysis was carried out using GeneSpring (Agilent), and the change rate of the expression level of each gene was calculated.
(§3) (Change rate)=(Expression level of each gene in cells treated with compound)[…](Expression level of each gene in cells untreated with compound)

LIPG mRNA = experiment: DNA microarray gene expression profile in HepG2 cells (Test Example 2), LIPG; format: cell-based, human; conditions: 24 hours, treated vs untreated cells
Experimental: as §1, §2, §3

Structure (SMILES)	Change rate (fold) of NPC1L1 expression level (NPC1L1 mRNA; 10 μM) [fold]	Change rate (fold) of LIPG expression level (LIPG mRNA; 10 μM) [fold]	Change rate (fold) of NPC1L1 expression level (NPC1L1 mRNA; 1 μM) [fold]	Change rate (fold) of LIPG expression level (LIPG mRNA; 1 μM) [fold]
COc1cc(F)c(C(C)C)cc1-c1ccc(C(F)(F)F)cc1CN1C(=O)O[C@H](c2cc(C(F)(F)F)cc(C(F)(F)F)c2)[C@@H]1C [Anacetrapib, (4S,5R)-5-[3,5-bis(trifluoromethyl)phenyl]-3-((4′-fluoro-5′-isopropyl-2′-methoxy-4-(trifluoromethyl)-[1,1′-biphenyl]-2-yl)methyl)-4-methyloxazolidin-2-one, reference compound]	−1.5	−1.9		
CCN(C[C@H]1CC[C@H](CC(=O)O)CC1)c1ccc(C(F)(F)F)cc1CN(c1ncc(OCCS(C)(=O)=O)cn1)[C@@H](C)c1cc(C(F)(F)F)cc(C(F)(F)F)c1 [Compound 2, (S)-(−)-trans-{4-[({2-[({1-[3,5-bis(trifluoromethyl)phenyl]ethyl}{5-[2-(methylsulfonyl)ethoxy]pyrimidin-2-yl}amino)methyl]-4-(trifluoromethyl)phenyl}(ethyl)amino)methyl]cyclohexyl}ac etic acid]	−3.1	−6.2	−2.3	−2.5
